Here are results for one compound from article PMC6943552, “Glucosinolates in Sisymbrium officinale (L.) Scop.: Comparative Analysis in Cultivated and Wild Plants and in Vitro Assays with T2Rs Bitter Taste Receptors” (Molecules, 2019).

The assay deals with T1, T2R16 (hT2R16) (Homo sapiens, UniProt Q9NYV7).
T1 construct: gene TAS2R16; coding region with N-terminal rSST3 tag (45 N-terminal residues of rat somatostatin receptor subtype 3), pcDNA5, transient in HEK293 PEAKrapid Galpha16i/o44 cells
T1 sequence (Q9NYV7 1-291): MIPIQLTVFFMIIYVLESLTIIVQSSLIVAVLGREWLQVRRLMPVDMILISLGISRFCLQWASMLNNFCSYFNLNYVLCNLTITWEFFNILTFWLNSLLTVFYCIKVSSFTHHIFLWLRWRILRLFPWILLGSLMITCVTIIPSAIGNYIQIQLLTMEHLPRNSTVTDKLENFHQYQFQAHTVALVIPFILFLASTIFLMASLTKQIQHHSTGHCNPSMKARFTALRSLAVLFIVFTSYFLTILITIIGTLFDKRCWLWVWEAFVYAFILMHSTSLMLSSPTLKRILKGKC
Briefly: FLIPR calcium imaging (Cal520-AM). It counts as cell-based.

A word on the EC50: it is the concentration that produces a half-maximal response. On to `CC(C)/C(=N/OS(=O)(=O)O)S[C@@H]1O[C@H](CO)[C@@H](O)[C@H](O)[C@H]1O` [compound 3, glucoputranjivin], for which the EC50 was more than 1000 µM.
